Experiments:
[1] = system: enterococci; assay: longer term experiment, sand dosed with pure culture of enterococci and imbibed with iodine solution; format: cell-based
Description: (§1) In a first experiment, a natural sample from Santa Monica beach was user. This soil sample was taken from an area close to a storm drain. Concentrations started at 1100 MPN enterococci per 100 gram sediment were used. Wash samples having a concentration of greater than 10 parts per million were used on the soil samples. Enterocci concentrations approached zero for all of five consecutive washes. A longer term experiment was then performed with sand dosed with a pure culture of enterococci, the >10 ppm iodine solution imbibed in the soil, and then autoclaving. The bacterial level started at 1050 MPN/100 g, and went to zero immediately upon treatment. This was clearly evidenced in five washes (all zero). Two samples were treated with >10 ppm iodine solutions and left to sit on the roof for several days. The bacterial levels were approximately zero at the end of the experiment. Samples that were imbibed with the >10 ppm solution and the sand raked, had bacterial levels that decreased in concentration during the days, and rebounded at night for two nights, and then ended up at zero, indicating effectiveness of the solution, and a benefit to combination of the solution with heat and/or light. The undisturbed controls in both dark and light ended up with countable bacteria at the end.
In a first experiment showing the efficacy of the iodine treatment on bacteria in soil, a natural sample from Santa Monica beach was user. This soil sample was taken from an area close to a storm drain. Concentrations started at 1100 MPN enterococci per 100 gram sediment were used. Wash samples having a concentration of greater than 10 parts per million were used on the soil samples. Enterocci concentrations approached zero for all of five consecutive washes. A longer term experiment was then performed with sand dosed with a pure culture of enterococci, the >10 ppm iodine solution imbibed in the soil, and then autoclaving. The bacterial level started at 1050 MPN/100 g, and went to zero immediately upon treatment. This was clearly evidenced in five washes (all zero). […]

[2] = system: enterococci; assay: iodine wash of natural Santa Monica beach soil sample; format: cell-based; settings: started at 1100 MPN, wash samples greater than 10 parts per million, all of five consecutive washes
Description: as §1, with “end. […]” for “end.”

## II [iodine solution, molecular iodine]
[1]; >10 ppm solution, sand raked, decreased during the days, rebounded at night for two nights
  bacterial levels at end, imbibed and raked sand: zero
[1]; sand dosed with pure culture, started at 1050 MPN/100 g, >10 ppm iodine solution imbibed, five washes (all zero)
  bacterial level immediately upon treatment: zero
[1]; two samples treated with >10 ppm iodine solutions, left to sit on the roof for several days
  bacterial levels at the end of the experiment: approximately zero
[2]
  Enterocci concentrations after wash: approximately zero
